In patent US20180153995A1, “USE OF ANTIMICROBIAL POLYMERS FOR RE-SENSITIZATION OF MICROORGANISMS UPON EMERGENCE OF RESISTANCE TO ANTI-MICROBIAL AGENTS” (Technion Research & Development Foundation Limited, priority 2008, published 2018):
≈ marks a conversion by molar mass, not a printed value. Where two headings read alike, the source gives them in different places.

Key:
MRSA 15903 = assay: microbe, parasite or virus in culture; assay type: cell-based, Staphylococcus aureus
Procedure, shortened: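 Two-agent combinations tested against MRSA 15903; FIC index = A/MICA + B/MICB, using MICs in combination versus alone. Below 0.5 read as clear re-sensitizing, 0.5–4 marginal or null, above 4 antagonism.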

S. aureus 43300 = assay: Antibiotic MIC by microdilution with or without sub-MIC polymer; assay type: cell-based, Staphylococcus aureus
Protocol: (§1) MICs were determined by microdilution susceptibility testing in 96-well plates (by Nunc) using inocula of 10^5 bacteria per ml. Cell populations were evaluated by optical density measurements at 620 nm and were calibrated against a set of standards. Hundred (100) μl of a bacterial suspension were added to 100 μl of culture medium (control) or to 100 μl of culture medium containing various polymer concentrations in 2-fold serial dilutions. Inhibition of proliferation was determined by optical density measurements at 620 nm after an incubation period of 24 hours at 37° C.
Table 8 below presents the MIC values of antibiotics in presence or absence of C12(5-ene)KKNC12KNH2 (SEQ ID NO: 2) at sub-MIC levels of the polymer, as measured for the S. aureus strains 43300 (ATCC), 15819 (clinical isolate), 15877 (clinical isolate) and 15852 (clinical isolate). MICs were determined by microdilution susceptibility testing in 96-well plates (Nunc) using inocula of 10^5 bacteria per ml. One hundred (100) μl of a bacterial suspension were added to 100 μl of culture medium (control) or to 100 μl of culture medium containing various antibiotic and C12(5-ene)KKNC12KNH2 (SEQ ID NO: 2) concentrations in 2-fold serial dilutions. Inhibition of proliferation was determined by optical density measurements at 620 nm after an incubation period of 24 hours at 37° C.
(§2) 100 μl of a bacterial suspension were added to 100 μl of culture medium (control) or to 100 μl of culture medium containing various antibiotic and C14(9-ene)KKNC12KNH2 (SEQ ID NO: 5) concentrations in 2-fold serial dilutions. Inhibition of proliferation was determined by optical density measurements at 620 nm after an incubation period of 24 hours at 37° C.

S. aureus 15877 = assay: as above; assay type: cell-based, Staphylococcus aureus
S. aureus 17314 = assay: as above; assay type: cell-based, Staphylococcus aureus
E. coli 14384 = assay: as above; assay type: cell-based, Escherichia coli; conditions: E. coli 14384; for Antibiotic MIC: no polymer (None)
Protocol: as §1, §2

E. coli 16327 = assay: microbe, parasite or virus in culture; conditions: for Antibiotic MIC: E. coli 16327
Protocol: as §1, §2

E. coli 16329 = assay type: cell-based, Escherichia coli
Protocol: as §1, §2

E. coli 14182 = assay: Antibiotic MIC by microdilution with or without sub-MIC polymer; assay type: cell-based, Escherichia coli
S. maltophila 748 = assay: as above; assay type: cell-based, Stenotrophomonas maltophila
[1] = +½ MIC (3.12 μM) C12(5-ene)KKNC12KNH2
[2] = +½ MIC (3.12 μM) C14(9-ene)KKNC12KNH2

O=C(O)c1cn(C2CC2)c2cc(N3CCNCC3)c(F)cc2c1=O [Ciprofloxacin, ciprofloxacin]
MIC (MRSA 15903; MRSA 15903, +¼ polymer MIC (1.6 μM) NC12(KNC12K)2NH2): 32 µg/mL
MIC (MRSA 15903; MRSA 15903, +½ polymer MIC (3.1 μM) NC12(KNC12K)2NH2): 1 µg/mL
MIC (MRSA 15903; MRSA 15903, +⅓ polymer MIC (2.1 μM) NC12(KNC12K)2NH2): 16 µg/mL
MIC, ¼ + MIC OAK (MRSA 15903; MRSA 15903, with C12K(KNC10K)3NH2 (SEQ ID NO: 10) at ¼ of its MIC): 128 µg/mL
MIC, ½ + MIC OAK (MRSA 15903; MRSA 15903, with C12K(KNC10K)3NH2 (SEQ ID NO: 10) at ½ of its MIC): 64 µg/mL
MIC, ⅓ + MIC OAK (MRSA 15903; MRSA 15903, with C12K(KNC10K)3NH2 (SEQ ID NO: 10) at ⅓ of its MIC): 128 µg/mL
MIC (MRSA 15903; S. aureus CI-15903, +polymer (¼ MIC) C12(5-ene)KKNC12KNH2): 32 µg/mL
MIC (MRSA 15903; S. aureus CI-15903, +polymer (½ MIC) C12(5-ene)KKNC12KNH2): 0.25 µg/mL
MIC (MRSA 15903; S. aureus CI-15903, +polymer (⅓ MIC) C12(5-ene)KKNC12KNH2): 4 µg/mL
MIC (MRSA 15903; Staphylococcus aureus, MRSA, 24 h, MRSA 15903, antibiotic alone (Table 22), read-out: MIC, Alone): 256 µg/mL
MIC (MRSA 15903; Staphylococcus aureus, MRSA, 24 h, MRSA 15903, antibiotic alone, read-out: MIC): 64 µg/mL
MIC (MRSA 15903; Staphylococcus aureus, MRSA, 24 h, S. aureus CI-15903, alone, read-out: MIC): 64 µg/mL
Antibiotic MIC (S. aureus 43300; +¼ MIC (1.6 μM) C14(9-ene)KKNC12KNH2): 0.25 to 0.5 µg/mL
Antibiotic MIC (S. aureus 43300; [1]): 0.03 µg/mL
Antibiotic MIC (S. aureus 43300; [2]): 0.25 µg/mL
Antibiotic MIC (S. aureus 43300; +⅓ MIC (2.1 μM) C14(9-ene)KKNC12KNH2): 0.25 to 0.5 µg/mL
Antibiotic MIC (S. aureus 43300; no polymer (None), Table 8): 0.5 µg/mL
Antibiotic MIC (S. aureus 43300; no polymer (None), Table 9): 0.5 µg/mL
Antibiotic MIC (S. aureus 43300; no polymer (None), Table 10): 0.25 µg/mL
Antibiotic MIC (S. aureus 43300; no polymer (None), Table 11): 0.5 µg/mL
Antibiotic MIC (S. aureus 43300; no polymer (None), Table 12): 0.5 µg/mL
Antibiotic MIC (S. aureus 15877; +¼ MIC (1.6 μM) C12(5-ene)KKNC12KNH2): 4 µg/mL
Antibiotic MIC (S. aureus 15877; [1]): 4 µg/mL
Antibiotic MIC (S. aureus 15877; +⅓ MIC (2.1 μM) C12(5-ene)KKNC12KNH2): 4 µg/mL
Antibiotic MIC (S. aureus 15877; no polymer (None), Table 8): 4 µg/mL
Antibiotic MIC (S. aureus 17314): 128 µg/mL
Antibiotic MIC (S. aureus 17314; S. aureus 17314, +¼ MIC (1.6 μM) C12K(KNC12K)2NH2): 128 µg/mL
Antibiotic MIC (S. aureus 17314; S. aureus 17314, +¼ MIC (1.6 μM) C14(9-ene)KKNC12KNH2): 64 µg/mL
Antibiotic MIC (S. aureus 17314; S. aureus 17314, +¼ MIC (1.6 μM) C16(9-ene)KKNC12KNH2): 32 µg/mL
Antibiotic MIC (S. aureus 17314; S. aureus 17314, +½ MIC (3.12 μM) C12K(KNC12K)2NH2): 64 µg/mL
Antibiotic MIC (S. aureus 17314; S. aureus 17314, +½ MIC (3.12 μM) C12KKNC12KNH2): 64 µg/mL
Antibiotic MIC (S. aureus 17314; S. aureus 17314, +½ MIC (3.12 μM) C14(9-ene)KKNC12KNH2): 64 µg/mL
Antibiotic MIC (S. aureus 17314; S. aureus 17314, +½ MIC (3.12 μM) C16(9-ene)KKNC12KNH2): 16 µg/mL
Antibiotic MIC (S. aureus 17314; S. aureus 17314, +⅓ MIC (2.1 μM) C12K(KNC12K)2NH2): 64 µg/mL
Antibiotic MIC (S. aureus 17314; S. aureus 17314, +⅓ MIC (2.1 μM) C12KKNC12KNH2): 64 µg/mL
Antibiotic MIC (S. aureus 17314; S. aureus 17314, +⅓ MIC (2.1 μM) C14(9-ene)KKNC12KNH2): 64 µg/mL
Antibiotic MIC (S. aureus 17314; S. aureus 17314, +⅓ MIC (2.1 μM) C16(9-ene)KKNC12KNH2): 32 µg/mL
Antibiotic MIC (S. aureus 17314; S. aureus 17314, no polymer (None), Table 9): 64 µg/mL
Antibiotic MIC (S. aureus 17314; S. aureus 17314, no polymer (None), Table 10): 64 µg/mL
Antibiotic MIC (S. aureus 17314; S. aureus 17314, no polymer (None), Table 11): 128 µg/mL
Antibiotic MIC (S. aureus 17314; S. aureus 17314, no polymer (None), Table 12): 128 µg/mL
Antibiotic MIC, None (E. coli 14384; antibiotic alone (Table 15)): <0.03 µg/mL
Antibiotic MIC (E. coli 14384; Table 9): <0.03 µg/mL
Antibiotic MIC (E. coli 14384; Table 14): <0.03 µg/mL
Antibiotic MIC (E. coli 16327; +¼ MIC (1.6 μM) C12K(KNC12K)2NH2): >512 µg/mL
Antibiotic MIC (E. coli 16327; +½ MIC (3.12 μM) C12K(KNC12K)2NH2): 128 µg/mL
Antibiotic MIC (E. coli 16327; [2]): 32 to 64 µg/mL
Antibiotic MIC (E. coli 16327; +⅓ MIC (2.1 μM) C12K(KNC12K)2NH2): >512 µg/mL
Antibiotic MIC (E. coli 16327; no polymer (None), Table 9): >512 µg/mL
Antibiotic MIC (E. coli 16327; no polymer (None), Table 10): >512 µg/mL
Antibiotic MIC (E. coli 16327; no polymer (None), Table 12): >512 µg/mL
MIC, ¼ + MIC OAK (E. coli 16327; E. coli U16327, with C12K(KNC10K)3NH2 (SEQ ID NO: 10) at ¼ of its MIC): 128 to 256 µg/mL
MIC, ½ + MIC OAK (E. coli 16327; E. coli U16327, with C12K(KNC10K)3NH2 (SEQ ID NO: 10) at ½ of its MIC): 128 µg/mL
MIC, ⅓ + MIC OAK (E. coli 16327; E. coli U16327, with C12K(KNC10K)3NH2 (SEQ ID NO: 10) at ⅓ of its MIC): 128 µg/mL
Antibiotic MIC, None (E. coli 16327; E. coli U-16327, antibiotic alone (Table 15)): 128 to 256 µg/mL
Antibiotic MIC in presence of C12K(NC8K)7NH2 (SEQ ID NO: 4), +¼ MIC (E. coli 16327; E. coli U-16327, polymer at ¼ of its MIC): 64 to 128 µg/mL
Antibiotic MIC in presence of C12K(NC8K)7NH2 (SEQ ID NO: 4), +½ MIC (E. coli 16327; E. coli U-16327, polymer at ½ of its MIC): 16 µg/mL
Antibiotic MIC in presence of C12K(NC8K)7NH2 (SEQ ID NO: 4), +⅓ MIC (E. coli 16327; E. coli U-16327, polymer at ⅓ of its MIC): 32 to 64 µg/mL
MIC (E. coli 16327; Escherichia coli, 16327, read-out: MIC, Alone): 256 µg/mL (≈ 773 µM)
Antibiotic MIC (E. coli 16329; E. coli 16329, +¼ MIC (1.6 μM) C16(9-ene)KKNC12KNH2): 64 µg/mL
Antibiotic MIC (E. coli 16329; E. coli 16329, +½ MIC (3.12 μM) C16(9-ene)KKNC12KNH2): 64 µg/mL
Antibiotic MIC (E. coli 16329; E. coli 16329, +⅓ MIC (2.1 μM) C16(9-ene)KKNC12KNH2): 64 µg/mL
Antibiotic MIC (E. coli 16329; E. coli 16329, no polymer (None), Table 10): 64 µg/mL
Antibiotic MIC (E. coli 16329; E. coli U-16329, +¼ MIC C12K(NC8K)5NH2): 64 µg/mL
Antibiotic MIC (E. coli 16329; E. coli U-16329, +½ MIC C12K(NC8K)5NH2): 32 µg/mL
Antibiotic MIC (E. coli 16329; E. coli U-16329, +⅓ MIC C12K(NC8K)5NH2): 64 µg/mL
Antibiotic MIC, None (E. coli 16329; E. coli U-16329, antibiotic alone (Table 15)): 64 µg/mL
Antibiotic MIC (E. coli 16329; E. coli U-16329, no polymer (None), Table 14): 64 µg/mL
Antibiotic MIC in presence of C12K(NC8K)7NH2 (SEQ ID NO: 4), +¼ MIC (E. coli 16329; E. coli U-16329, polymer at ¼ of its MIC): 64 to 128 µg/mL
Antibiotic MIC in presence of C12K(NC8K)7NH2 (SEQ ID NO: 4), +½ MIC (E. coli 16329; E. coli U-16329, polymer at ½ of its MIC): 64 µg/mL
Antibiotic MIC in presence of C12K(NC8K)7NH2 (SEQ ID NO: 4), +⅓ MIC (E. coli 16329; E. coli U-16329, polymer at ⅓ of its MIC): 64 µg/mL
Antibiotic MIC, None (E. coli 14182; antibiotic alone (Table 15)): <0.03 µg/mL
Antibiotic MIC (E. coli 14182; no polymer (None), Table 14): <0.03 µg/mL
Antibiotic MIC (S. maltophila 748; +¼ MIC (1.6 μM) C12K(KNC12K)3NH2): 8 µg/mL
Antibiotic MIC (S. maltophila 748; +½ MIC (3.12 μM) C12K(KNC12K)3NH2): 2 µg/mL
Antibiotic MIC (S. maltophila 748; +⅓ MIC (2.1 μM) C12K(KNC12K)3NH2): 4 to 8 µg/mL
Antibiotic MIC (S. maltophila 748; no polymer (None), Table 13): 8 µg/mL
